These are literature values, as cited in EP2229962A1, “Medical-surgical devices with antibacterial coating for human or animal implant and a method for their production” (Martelli, Laura, priority 2009, dated 2010).

Like-named read-outs stand apart in the source and are kept apart here. Bounds are passed on as bounds.

On to `[Ag+]` [Ag^+ ions, Ag^+], for which the “concentration of Ag^+ ions needed to perform an antibacterial action” value is “at least 1 ppb” with bacteria (1 ppb equivalent to 1 µg/l) and not below 0.1 ppb with bacteria (in the case of certain bacteria). Moreover, the “concentration above which there are cytotoxic effects to the surrounding tissue” value in the data set on surrounding tissue is on record as more than 35 ppb.
